# Experimental data as given in US6362369B1, “Phthalic acid diamide derivatives fluorine-containing aniline compounds as starting material, agricultural and horticultural insecticides, and a method for application of the insecticides” (Nihon Nohyaku Co., Ltd., priority 1997, dated 2002).
# Legend:
# Format in all cases: in vivo
# [1] = test system: diamondback moth (Plutella xylostella); test: Insecticidal effect on diamondback moth (Test Example 1); settings: for Insecticidal effect, Test Example 1 / Insecticidal effect (Test Example 1), judged from mortality: diamondback moth; for Insecticidal effect on diamondback moth (Test Example 1), judged grade: mortality judged according to the criterion shown in Test Example 1; for Insecticidal effect (Test Example 1), judged from mortality: judged by the criterion of Test Example 1
# Method in brief: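 Read-out was mortality from hatched-insect counts taken 6 days after the egg-bearing cabbage seedling was immersed, graded by set criteria. Seedlings were air-dried and kept at 25° C after treatment. Groups of 10 insects, in triplicate.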
# [2] = test system: common cutworm (Spodoptera Litura); test: Insecticidal effect on common cutworm (Test Example 2); settings: 500 ppm, 25° C.; for Insecticidal effect, Test Example 2: cabbage leaf immersed; for Insecticidal effect, Test Example 2 / Insecticidal effect on common cutworm (Test Example 2), judged grade: eight days after inoculation; for Insecticidal effect on common cutworm (Test Example 2), judged grade / Insecticidal effect (Test Example 2), judged from mortality: cabbage leaf dip; for Insecticidal effect on common cutworm (Test Example 2), judged grade: second-instar larvae; for Insecticidal effect (Test Example 2), judged from mortality: 8 days after inoculation
# Method in brief: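 Mortality was scored 8 days post-inoculation, using three groups of 10 second-instar larvae kept at 25 °C in closed 9 cm dishes on air-dried treated material. The insecticidal effect was graded from calculated mortality by a set criterion.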
# [3] = test system: rice leafroller (Cnaphalocrocis medinalis); test: Insecticidal effect on rice leafroller (Test Example 3); settings: 500 ppm, 25° C., humidity 70%; for Insecticidal effect, Test Example 3: rice lamina immersed; for Insecticidal effect, Test Example 3 / Insecticidal effect on rice leafroller (Test Example 3), judged grade: four days after inoculation; for Insecticidal effect on rice leafroller (Test Example 3), judged grade / Insecticidal effect (Test Example 3), judged from mortality: rice lamina dip; for Insecticidal effect on rice leafroller (Test Example 3), judged grade: third-instar larvae; for Insecticidal effect (Test Example 3), judged from mortality: 4 days after inoculation
# Method in brief: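 Groups of 10 third-instar larvae, in triplicate, are placed on air-dried lamina resting on wet filter paper. Incubation runs four days at 25° C with 70% humidity before survivors and dead are tallied.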
# [4] = judged by the mortality criterion of Test Example 1
# [5] = second-instar larvae of common cutworm
# [6] = third-instar larvae of rice leafroller
# [7] = mortality judged by criterion of Test Example 1
# [8] = common cutworm second-instar larvae
# [9] = rice leafroller third-instar larvae
smiles,measurement,setting,value
Cc1ccc(NC(=O)c2cccc(Br)c2C(=O)NC(C)C)c(C)c1OC(F)F [compound 284],"Insecticidal effect, Test Example 1",[1]; [4],A (100)
same,"Insecticidal effect, Test Example 2",[2]; [5],A (100)
same,"Insecticidal effect, Test Example 3",[3]; [6],A (100)
Cc1cc(SC(F)(F)C(F)(F)F)ccc1NC(=O)c1cccc(Cl)c1C(=O)NC(C)C [compound 907],"Insecticidal effect on diamondback moth (Test Example 1), judged grade",[1],A (100)
same,"Insecticidal effect on common cutworm (Test Example 2), judged grade",[2],A (100)
same,"Insecticidal effect on rice leafroller (Test Example 3), judged grade",[3],A (100)
Cc1cc(OC(F)(F)C(F)F)ccc1NC(=O)c1cccc(F)c1C(=O)NC(C)C [compound 512],"Insecticidal effect on diamondback moth (Test Example 1), judged grade",[1],A (100)
same,"Insecticidal effect on common cutworm (Test Example 2), judged grade",[2],A (100)
same,"Insecticidal effect on rice leafroller (Test Example 3), judged grade",[3],A (100)
COc1ccc(-c2ccccc2)cc1NC(=O)c1cccc(Cl)c1C(=O)NC(C)C [compound 1296],"Insecticidal effect, Test Example 1",[1]; [7],A (100)
same,"Insecticidal effect, Test Example 2",[2]; [8],A (100)
same,"Insecticidal effect, Test Example 3",[3]; [9],A (100)
CC(C)NC(=O)c1ccccc1C(=O)Nc1ccc(OC(F)(F)C(F)OC(F)(F)C(F)(F)C(F)(F)F)cc1 (stereo not drawn) [compound 30],"Insecticidal effect, Test Example 1",[1]; [4],A (100)
same,"Insecticidal effect, Test Example 2",[2]; [5],A (100)
same,"Insecticidal effect, Test Example 3",[3]; [6],A (100)
Cc1ccc(Cl)cc1NC(=O)c1cccc(Br)c1C(=O)NC(C)C [compound 268],"Insecticidal effect, Test Example 1",[1]; [4],A (100)
same,"Insecticidal effect, Test Example 2",[2]; [5],A (100)
same,"Insecticidal effect, Test Example 3",[3]; [6],A (100)
CC(C)NC(=O)c1c(C(=O)Nc2ccc(SC(F)(F)F)cc2)cccc1[N+](=O)[O-] [compound 996],"Insecticidal effect, Test Example 1",[1]; [7],A (100)
same,"Insecticidal effect, Test Example 2",[2]; [8],A (100)
same,"Insecticidal effect, Test Example 3",[3]; [9],A (100)
CC(C)NC(=O)c1c(I)cccc1C(=O)Nc1ccc(SC(F)(F)F)cc1 [compound 998],"Insecticidal effect, Test Example 1",[1]; [7],A (100)
same,"Insecticidal effect, Test Example 2",[2]; [8],A (100)
same,"Insecticidal effect, Test Example 3",[3]; [9],A (100)
CC(C)NC(=O)c1c(I)cccc1C(=O)Nc1ccc2oc(C(F)(F)C(F)(F)F)nc2c1 [compound 1142],"Insecticidal effect, Test Example 1",[1]; [7],A (100)
same,"Insecticidal effect, Test Example 2",[2]; [8],A (100)
same,"Insecticidal effect, Test Example 3",[3]; [9],A (100)
CCN(CC)C(=O)c1c(Cl)cccc1C(=O)Nc1ccc(C(F)(C(F)(F)F)C(F)(F)F)cc1C [compound 1537],"Insecticidal effect (Test Example 1), judged from mortality",[1],A (100)
same,"Insecticidal effect (Test Example 2), judged from mortality",[2]; [5],A (100)
same,"Insecticidal effect (Test Example 3), judged from mortality",[3]; [6],A (100)
CC(C)NC(=O)c1c(Cl)cccc1C(=O)Nc1ccc(C(F)(C(F)(F)F)C(F)(F)F)cc1Cl [compound 126],"Insecticidal effect, Test Example 1",[1]; [4],A (100)
same,"Insecticidal effect, Test Example 2",[2]; [5],A (100)
same,"Insecticidal effect, Test Example 3",[3]; [6],A (100)
CC(C)NC(=O)c1c(C(=O)Nc2ccc(C(F)(F)F)cc2)cccc1[N+](=O)[O-] [compound 606],"Insecticidal effect on diamondback moth (Test Example 1), judged grade",[1],A (100)
same,"Insecticidal effect on common cutworm (Test Example 2), judged grade",[2],D (79-50)
same,"Insecticidal effect on rice leafroller (Test Example 3), judged grade",[3],A (100)
Cc1cc(C(F)(F)C(F)(F)F)ccc1NC(=O)c1cccc(Cl)c1C(=O)N[C@@H](C)CO [compound 1445],"Insecticidal effect (Test Example 1), judged from mortality",[1],A (100)
same,"Insecticidal effect (Test Example 2), judged from mortality",[2]; [5],A (100)
same,"Insecticidal effect (Test Example 3), judged from mortality",[3]; [6],A (100)
CC(C)NC(=O)c1cccc(Cl)c1C(=O)Nc1ccc(Cl)cc1F [compound 212],"Insecticidal effect, Test Example 1",[1]; [4],A (100)
same,"Insecticidal effect, Test Example 2",[2]; [5],D (79-50)
same,"Insecticidal effect, Test Example 3",[3]; [6],A (100)
CC(C)NC(=O)c1c(I)cccc1C(=O)Nc1ccc(-c2csc(C(F)(F)F)n2)cc1 [compound 1765],"Insecticidal effect (Test Example 1), judged from mortality",[1],A (100)
same,"Insecticidal effect (Test Example 2), judged from mortality",[2]; [5],A (100)
same,"Insecticidal effect (Test Example 3), judged from mortality",[3]; [6],A (100)
CC(C)NC(=O)c1c(Cl)cccc1C(=O)Nc1ccc2oc(C(F)(F)F)nc2c1 [compound 165],"Insecticidal effect, Test Example 1",[1]; [4],A (100)
same,"Insecticidal effect, Test Example 2",[2]; [5],B (99-90)
same,"Insecticidal effect, Test Example 3",[3]; [6],C (89-80)
Cc1ccc(Cl)cc1NC(=O)c1cccc(F)c1C(=O)NC(C)C [compound 491],"Insecticidal effect on diamondback moth (Test Example 1), judged grade",[1],A (100)
same,"Insecticidal effect on common cutworm (Test Example 2), judged grade",[2],A (100)
same,"Insecticidal effect on rice leafroller (Test Example 3), judged grade",[3],A (100)
Cc1cc(C(F)(F)C(F)(Cl)Cl)ccc1NC(=O)c1ccccc1C(=O)NC(C)C [compound 64],"Insecticidal effect, Test Example 1",[1]; [4],A (100)
same,"Insecticidal effect, Test Example 2",[2]; [5],B (99-90)
same,"Insecticidal effect, Test Example 3",[3]; [6],A (100)
